Numbers after ± are expanded uncertainties.
Key:
[1] = 100 kPa, Liquid; for speed of sound: Frequency=3 MHz, Sing-around technique in a fixed-path interferometer; for mass density: Vibrating tube method
[2] = refractive index (Na D-line) (dimensionless); conditions: 100 kPa, Liquid, Standard Abbe refractometry
[3] = xn = mol fraction of the nth substance listed; conditions: 100 kPa, Liquid, x2 = 0; for speed of sound: Frequency=3 MHz, Sing-around technique in a fixed-path interferometer; for mass density: Vibrating tube method
[4] = refractive index (Na D-line) (dimensionless); xn = mol fraction of the nth substance listed; conditions: 100 kPa, Liquid, Standard Abbe refractometry, x2 = 0

| speed of sound ([1]; 298.15 K) | mass density ([1]; 298.15 K) | speed of sound ([1]; 308.15 K) | mass density ([1]; 308.15 K) | speed of sound ([1]; 318.15 K) | mass density ([1]; 318.15 K) | refractive index ([2]; 298.15 K) | refractive index ([2]; 308.15 K) | refractive index ([2]; 318.15 K) | speed of sound ([3]; 298.15 K) | mass density ([3]; 298.15 K) | speed of sound ([3]; 308.15 K) | mass density ([3]; 308.15 K) | speed of sound ([3]; 318.15 K) | mass density ([3]; 318.15 K) | refractive index ([4]; 298.15 K) | refractive index ([4]; 308.15 K) | refractive index ([4]; 318.15 K) | Structure (SMILES) |
| --- | --- | --- | --- | --- | --- | --- | --- | --- | --- | --- | --- | --- | --- | --- | --- | --- | --- | --- |
| 1485.1 ± 2.3 m/s | 1105.02 ± 1.1 kg/m3 | 1458.5 ± 2.3 m/s | 1098.32 ± 1 kg/m3 | 1433.2 ± 2.3 m/s | 1091.54 ± 1 kg/m3 | 1.43253 ± 0.0017 | 1.42984 ± 0.0017 | 1.42715 ± 0.0017 |  |  |  |  |  |  |  |  |  | CCCCCCCC[n+]1ccn(C)c1.F[B-](F)(F)F [1-methyl-3-octylimidazolium tetrafluoroborate] |
| 1189 ± 1.4 m/s | 797.82 ± 0.22 kg/m3 | 1155.9 ± 1.3 m/s | 790.63 ± 0.23 kg/m3 | 1118.6 ± 1.3 m/s | 781.98 ± 0.23 kg/m3 | 1.39408 ± 0.0016 | 1.38925 ± 0.0016 | 1.38444 ± 0.0016 |  |  |  |  |  |  |  |  |  | CC(C)CO [2-methyl-1-propanol] |
|  |  |  |  |  |  |  |  |  | 1189 ± 1.4 m/s | 797.82 ± 0.22 kg/m3 | 1155.9 ± 1.3 m/s | 790.63 ± 0.23 kg/m3 | 1118.6 ± 1.3 m/s | 781.98 ± 0.23 kg/m3 | 1.39408 ± 0.0016 | 1.38925 ± 0.0016 | 1.38444 ± 0.0016 | CC(C)CO [2-methyl-1-propanol] + CCCCCCCC[n+]1ccn(C)c1.F[B-](F)(F)F |
| 1121.4 ± 1.3 m/s | 780.72 ± 0.23 kg/m3 | 1082 ± 1.3 m/s | 770.21 ± 0.23 kg/m3 | 1038.2 ± 1.3 m/s | 759.5 ± 0.23 kg/m3 | 1.38488 ± 0.0016 | 1.37985 ± 0.0016 | 1.37402 ± 0.0016 |  |  |  |  |  |  |  |  |  | CC(C)(C)O [2-methylpropan-2-ol] |
|  |  |  |  |  |  |  |  |  | 1121.4 ± 1.3 m/s | 780.72 ± 0.23 kg/m3 | 1082 ± 1.3 m/s | 770.21 ± 0.23 kg/m3 | 1038.2 ± 1.3 m/s | 759.5 ± 0.23 kg/m3 | 1.38488 ± 0.0016 | 1.37985 ± 0.0016 | 1.37402 ± 0.0016 | CC(C)(C)O [2-methylpropan-2-ol] + CCCCCCCC[n+]1ccn(C)c1.F[B-](F)(F)F |
| 1242.4 ± 1.2 m/s | 805.76 ± 0.2 kg/m3 | 1207.5 ± 1.2 m/s | 798.05 ± 0.2 kg/m3 | 1171.5 ± 1.2 m/s | 790.21 ± 0.2 kg/m3 | 1.39728 ± 0.0016 | 1.39324 ± 0.0016 | 1.38911 ± 0.0016 |  |  |  |  |  |  |  |  |  | CCCCO [butan-1-ol] |
|  |  |  |  |  |  |  |  |  | 1242.4 ± 1.2 m/s | 805.76 ± 0.2 kg/m3 | 1207.5 ± 1.2 m/s | 798.05 ± 0.2 kg/m3 | 1171.5 ± 1.2 m/s | 790.21 ± 0.2 kg/m3 | 1.39728 ± 0.0016 | 1.39324 ± 0.0016 | 1.38911 ± 0.0016 | CCCCO [butan-1-ol] + CCCCCCCC[n+]1ccn(C)c1.F[B-](F)(F)F |

Source: the NIST ThermoML archive (doi:10.1016/j.tca.2016.03.026)
